# Measured values published in patent US9675591B2, “Methods for treating seizure disorders and pain” (THE REGENTS OF THE UNIVERSITY OF CALIFORNIA, priority 2013, dated 2017).
# Read-outs that look alike come from different tables or passages of the source.
# Assays:
# [1] = test system: 6-Hz psychomotor seizures; assay: 6-Hz psychomotor seizure test (ASP); assay type: in vivo, mice; settings: for ED50: Mus musculus, ip, mice
# Protocol: Seizures characterized by a minimal clonic phase followed by stereotyped automatistic behaviors (jaw chomping and whisker movement) were induced in mice by a low frequency (6 Hz), long-duration (3 s) stimulus. These seizures resemble automatistic behavior in patients with complex partial seizures. At varying times (0.25, 0.5, 1, 2, and 4 h) after drug treatment, individual mice (four at each time point) were challenged with sufficient current (32 or 44 mA at 6 Hz for 3 s) delivered through corneal electrodes to elicit a psychomotor seizure. Animals not displaying this behavior are considered protected.
# sound-induced seizures = assay: Frings audiogenic seizure (AGS)-susceptible mouse model; assay type: in vivo, mice; settings: ip, 2 h, read-out: ED50, protection from sound induced seizures
# Protocol: Frings audiogenic seizure (AGS)-susceptible mice are genetically susceptible to sound-induced seizures (Frings et al., 1953). A colony of AGS mice is maintained by the ASP at the University of Utah. Groups of 8 female mice (weighing 18-25 g) were treated i.p. with increasing doses of SKA-19. At the TPE in the MES test, mice were exposed to a sound stimulus of 110 decibels (11 KHz) delivered for 20 s.
# [2] = Plasma protein binding by ultrafiltration; assay type: in vitro ADME; settings: rat plasma
# Protocol: For intravenous application, SKA-19 was dissolved at 5 mg/mL in a mixture of 10% CremophorEL (Sigma-Aldrich, St. Louis, Mo., USA) and 90% phosphate-buffered saline and then injected at 10 mg/kg into the tail vein of Sprague-Dawley rats. At various time points after the injection, ˜100 to 200 μL of blood was collected from a tail nick into EDTA blood sample collection tubes. Plasma was separated by centrifugation and stored at −80° C. pending analysis. For intraperitoneal application SKA-19 was dissolved in Miglyol 812 neutral oil (caprylic/capric triglyceride; Trade name Neobee M5, Spectrum Chemicals, Gardena, Calif., USA) at 2 mg/mL and injected intraperitoneally at 10 and 30 mg/kg. After determining that SKA-19 plasma concentrations peaked 2 h after i.p. application, a group of 3 rats was subjected to cardiac puncture under deep isoflurane anesthesia and then sacrificed before removing brain, heart, liver, spleen and fat. Tissue samples were homogenized in 1 ml of H2O with a Brinkman Kinematica PT 1600E homogenizer and the protein precipitated with 1 ml of acetonitrile. The samples were then centrifuged at 3000 rpm and supernatants concentrated to 1 ml. Plasma and homogenized tissue samples were purified using C18 solid phase extraction cartridges. Eluted fractions corresponding to SKA-19 were dried under nitrogen and reconstituted in acetonitrile. […] Using electrospray ionization MS and selective reaction monitoring (SRM) (capillary temperature 350° C., capillary voltage 4000 V, collision energy −26 eV, positive ion mode), SKA-19 was quantified by its base peak of 182.9 m/z (C7H7N2S2^•+ fragment) and its concentration was calculated with a 9-point calibration curve from 50 nmol/L to 10 μmol/L. The percentage of plasma protein binding for SKA-19 was determined by ultrafiltration. […] The centrifugate (=free SKA-19) was directly analyzed for SKA-19 by UPLC-MS. […]
# [3] = ASP toxicity studies (species not stated); assay type: in vivo; settings: 200 mg/kg
# mice = assay: Motor toxicity, horizontal screen test in mice; assay type: in vivo; settings: i.p. as solution, 10 min time point
# Protocol: (§1) Abnormal neurological status in mice following SKA-19 administration was evaluated with the rotorod test. When a normal mouse is placed on a rod 1 inch in diameter that rotates at a speed of 6 rpm, the mouse can maintain equilibrium for a long time. Inability of the mouse to stay on the rotating rod in three trials for 1 min is taken as an indication of motor impairment. […] Mice were placed on a horizontally oriented grid (consisting of parallel 1.5-mm diameter rods situated 1 cm apart), and the grid was inverted. Animals that fell from the grid within 10 s were scored as impaired.
# (§2) The mouse maximal electroshock (MES) and 6 Hz seizure models were used. Motor toxicity was assessed using a modification of the horizontal screen test. ED50 values in the seizure models and TD50 values in the toxicity test were determined by nonlinear fitting of dose-response curves. […] Drugs solutions were injected intraperitoneally 10 min prior to administration of the electrical stimulus in a volume of 10 ml/kg body weight.
# [4] = Motor toxicity, horizontal screen test in mice; assay type: in vivo; settings: in vivo, ip, i.p. as solution, 10 min time point, read-out: TD50, neurological impairment (horizontal screen)
# Protocol: as §1, §2
structure (smiles),measurement,setting,value
"Nc1nc2ccc(SC(F)(F)F)cc2s1 [SKA-19, 6-((trifluoromethyl)thio)benzo[d]thiazol-2-amine]","protection in 6-Hz test, initial screen","[1]; 10 mg/kg i.p., all other tested time points",partial protection
same,"protection in 6-Hz test, initial screen",[1]; 2 hours after i.p. 10 mg/kg,full protection (4 out of 4 animals)
same,ED50,"[1]; 2 h, 32 mA",12.2 mg/kg
same,ED50,[1]; current intensity 44 mA,28.1 mg/kg
same,ED50,sound-induced seizures,2.15 mg/kg
same,fraction unbound,[2],0.11 to 0.18
same,fraction unbound at 15 min,[2],0.11
same,unbound (free) fraction,[2],9.0±0.4%
same,duration of sedation and neurological impairment,[3],up to 24 h
same,"TD50, neurological impairment (horizontal screen)",mice,16.33 mg/kg
same,TD50 at 10 min,"[4]; CF-1, mouse",16.1 mg/kg
same,TD50 at 10 min,[4]; mouse,16.1 mg/kg
